For 14 compounds, ED50 results are on record in ChEMBL document CHEMBL3272162, “Quinazolines and 1,4-benzodiazepines. 81. s-Triazolo[4,3-a][1,4]benzodiazepines by oxidative cyclization of hydrazones” (1977).

Molecules are shown by their SMILES.

Holding throughout (format): functional
Assay [1] deals with Mus musculus. Briefly: CNS activity in po dosed mouse by inclined screen test.
Assay [2] relates to Mus musculus. Briefly: CNS activity in po dosed mouse assessed as antifighting activity by foot shock test.
In assay [3] the test system is Mus musculus. The experiment in a line: CNS activity in po dosed mouse assessed as antagonism against pentylenetetrazole-induced response.

By ED50 is commonly meant the dose that gives a 50% effect, or the effect in half of the subjects. Regarding `CN(C)CCNC(=O)c1nnc2n1-c1ccc(Cl)cc1C(c1ccccc1)=NC2`, the figures for the ED50 in assay [1], in assay [2] and in assay [3] were 300 mg/kg, 100 mg/kg and 50 mg/kg, respectively.
On the same counts, the results for `C=Cc1nnc2n1-c1ccc(Cl)cc1C(c1ccccc1Cl)=NC2` are 150 mg/kg, 6.25 mg/kg and 4.2 mg/kg.
The like results for `OCC(O)c1nnc2n1-c1ccc(Cl)cc1C(c1ccccc1F)=NC2` (configuration not stated) were, in that order, 200 mg/kg, 5 mg/kg and 1.5 mg/kg.
On the same counts, the results for `NNC(=O)c1nnc2n1-c1ccc(Cl)cc1C(c1ccccc1)=NC2` are 500 mg/kg, 50 mg/kg and 2.8 mg/kg.
`Cc1nnc2n1-c1ccc(Cl)cc1C(c1ccccc1)=[N+]([O-])C2`: the ED50 in assay [1] was more than 400 mg/kg; in assay [2] it was 100 mg/kg; in assay [3], 3.35 mg/kg.
On the same counts, the results for `CNC1=Nc2ccc(Cl)cc2C(c2ccccc2)=[N+]([O-])C1` [CHLORDIAZEPOXIDE] are 100 mg/kg, 40 mg/kg and 8 mg/kg.
The like results for `CN1C(=O)CN=C(c2ccccc2)c2cc(Cl)ccc21` [DIAZEPAM] were, in that order, 25 mg/kg, 10 mg/kg and 1.4 mg/kg.
On the same counts, the results for `Cc1nnc2n1-c1ccc(Cl)cc1C(c1ccccc1)=NC2` [ALPRAZOLAM] are 2 mg/kg, 2.5 mg/kg and 0.3 mg/kg.
On to `CCOC(=O)NN(/C=C/c1nnc2n1-c1ccc(Cl)cc1C(c1ccccc1Cl)=NC2)C(=O)OCC`, for which the 50% effective dose (ED50) is more than 400 mg/kg in assay [1], more than 100 mg/kg in assay [2] and more than 800 mg/kg in assay [3].
On the same counts, the results for `COC(=O)c1nnc2n1-c1ccc(Cl)cc1C(c1ccccc1)=NC2` are 40 mg/kg, 5 mg/kg and 0.9 mg/kg.
On the same counts, the results for `OCC(O)c1nnc2n1-c1ccc(Cl)cc1C(c1ccccc1)=NC2` (configuration not stated) are 100 mg/kg, 20 mg/kg and 3.8 mg/kg.
As to `[O-][N+]1=C(c2ccccc2)c2cc(Cl)ccc2-n2c(nnc2C(O)CO)C1` (configuration not stated), the ED50 in assay [1] is more than 400 mg/kg; in assay [2], more than 100 mg/kg; in assay [3], 620 mg/kg.
For the compound `Clc1ccc2c(c1)C(c1ccccc1)=NCc1nncn1-2` [ESTAZOLAM], the ED50 was more than 400 mg/kg in assay [1], 0.5 mg/kg in assay [2] and 1.1 mg/kg in assay [3].
Regarding `C=Cc1nnc2n1-c1ccc(Cl)cc1C(c1ccccc1F)=NC2`, the ED50 in assay [1] was 150 mg/kg; in assay [2] it was 2.5 mg/kg; in assay [3] it was 1.3 mg/kg.
